Where two headings read alike, the source gives them in different places.
Legend:
THP1 cells = test: Combination drug screening, Cell Titer Glo, 10 × 10 matrix, THP1 cells; type: cell-based
MOLM14(D835Y) cells = type: cell-based; settings: for Excess HSA Score: 10 × 10
IRAK4 = molecular target: T1, IRAK4 (Homo sapiens, UniProt Q9NWZ3); test: DiscoverX KINOMEscan competition binding, IRAK4; design: purchased RBC (Reaction Biology) HotSpot assay
T1 sequence (Q9NWZ3 1-460): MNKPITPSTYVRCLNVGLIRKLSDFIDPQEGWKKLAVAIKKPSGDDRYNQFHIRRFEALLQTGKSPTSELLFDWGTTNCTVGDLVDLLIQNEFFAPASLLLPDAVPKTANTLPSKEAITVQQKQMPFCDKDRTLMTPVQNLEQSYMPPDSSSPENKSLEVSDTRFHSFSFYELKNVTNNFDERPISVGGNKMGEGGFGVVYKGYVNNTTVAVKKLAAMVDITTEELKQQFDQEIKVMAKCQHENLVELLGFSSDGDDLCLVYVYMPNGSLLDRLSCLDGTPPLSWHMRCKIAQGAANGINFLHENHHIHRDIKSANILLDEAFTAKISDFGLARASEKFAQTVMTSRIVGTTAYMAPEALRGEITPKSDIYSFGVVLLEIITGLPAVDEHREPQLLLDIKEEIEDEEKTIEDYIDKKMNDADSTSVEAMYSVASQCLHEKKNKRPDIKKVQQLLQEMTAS

[1] = starting conc. 200 nM, with (+)-BAY-1251152 starting conc. 1000 nM
[2] = starting conc. 200 nM, with Azacitidine (5-Azacytidine) starting conc. 20000 nM
[3] = starting conc. 200 nM, with Palbociclib starting conc. 10000 nM
[4] = starting conc. 200 nM, with Prednisolone starting conc. 10000 nM
[5] = starting conc. 200 nM, with TNO-155 starting conc. 10000 nM
[6] = starting conc. 200 nM, with Venetoclax (ABT-199) starting conc. 2000 nM
[7] = starting conc. 200 nM, with Venetoclax (ABT-199) starting conc. 20000 nM
[8] = starting conc. 20000 nM, with (+)-BAY-1251152 starting conc. 1000 nM
[9] = starting conc. 20000 nM, with Azacitidine (5-Azacytidine) starting conc. 20000 nM
[10] = starting conc. 20000 nM, with Palbociclib starting conc. 10000 nM
[11] = starting conc. 20000 nM, with Prednisolone starting conc. 10000 nM
[12] = starting conc. 20000 nM, with TNO-155 starting conc. 10000 nM
[13] = starting conc. 20000 nM, with Venetoclax (ABT-199) starting conc. 2000 nM
[14] = starting conc. 20000 nM, with Venetoclax (ABT-199) starting conc. 20000 nM
[15] = MOLM14(D835Y) cells, combination with Eprenetapopt/APR-246
[16] = MOLM14(D835Y) cells, combination with Venetoclax (ABT-199)

In the case of `COc1cc2ncc(-c3cncc(N[C@H]4CNCC[C@@H]4F)n3)n2nc1C1CC1` [Compound 24, 6-(6-cyclopropyl-7-methoxyimidazo[1,2-b]pyridazin-3-yl)-N-((3S,4S)-4-fluoropiperidin-3-yl)pyrazin-2-amine], the “Excess HSA Score” value (THP1 cells; THP1 cells, 10 × 10, combination with (+)-BAY-1251152) is reported as −308.4, the “Excess HSA Score” value (THP1 cells; THP1 cells, 10 × 10, combination with AMG-232) is reported as 144.3 and the “Excess HSA Score” value (THP1 cells; THP1 cells, 10 × 10, combination with AZD-5363) is reported as −379.5012. For the same compound, the “Excess HSA Score” value (THP1 cells; THP1 cells, 10 × 10, combination with Eprenetapopt/APR-246) was −87.03, the “Excess HSA Score” value (THP1 cells; THP1 cells, 10 × 10, combination with Ivosidenib) was 107 and the “Excess HSA Score” value (THP1 cells; THP1 cells, 10 × 10, combination with Lenalidomide) was −94.52. For the same compound, the “Excess HSA Score” value (THP1 cells; THP1 cells, 10 × 10, combination with Palbociclib) was −359.2, the “Excess HSA Score” value (THP1 cells; THP1 cells, 10 × 10, combination with Prednisolone) was 35 and the “Excess HSA Score” value (THP1 cells; THP1 cells, 10 × 10, combination with SNDX-5613) was 504. For the same compound, the “Excess HSA Score” value (THP1 cells; THP1 cells, 10 × 10, combination with TNO-155) was −66.32, the “Excess HSA Score” value (THP1 cells; THP1 cells, 10 × 10, combination with Trametinib) was −416.7 and the “Excess HSA Score” value (THP1 cells; THP1 cells, 10 × 10, combination with Ulixertinib) was −298.8. For the same compound, the “Excess HSA Score” value (THP1 cells; THP1 cells, 10 × 10, combination with Venetoclax (ABT-199)) was −2203, the Comments (THP1 cells; THP1 cells, combination with Prednisolone) was “Antagonistic” and the Comments (THP1 cells; THP1 cells, combination with Venetoclax (ABT-199)) was “Synergistic”. For the same compound, the Comments (THP1 cells; [1]) was “Synergistic at both”, the “Excess HSA Score” value (THP1 cells; [1]) was −571 and the Comments (THP1 cells; [2]) was “Synergism is more”. The “Excess HSA Score” value (THP1 cells; [2]) was −34.1, the Comments (THP1 cells; [3]) was “Synergistic at both” and the “Excess HSA Score” value (THP1 cells; [3]) was −217.9. For the same compound, the Comments (THP1 cells; [4]) was “Antagonistic at both”, the “Excess HSA Score” value (THP1 cells; [4]) was 212.2 and the Comments (THP1 cells; [5]) was “Synergistic”. For the same compound, the “Excess HSA Score” value (THP1 cells; [5]) was −37.04, the Comments (THP1 cells; [6]) was “Synergistic; Optimal” and the “Excess HSA Score” value (THP1 cells; [6]) was −888.9. For the same compound, the Comments (THP1 cells; [7]) was “Synergistic; Optimal”, the “Excess HSA Score” value (THP1 cells; [7]) was −1905 and the Comments (THP1 cells; [8]) was “Synergistic at both”. For the same compound, the “Excess HSA Score” value (THP1 cells; [8]) was −641.3, the Comments (THP1 cells; [9]) was “Synergism is more” and the “Excess HSA Score” value (THP1 cells; [9]) was −703.5. For the same compound, the Comments (THP1 cells; [10]) was “Synergistic at both”, the “Excess HSA Score” value (THP1 cells; [10]) was −318.6 and the Comments (THP1 cells; [11]) was “Antagonistic at both”. For the same compound, the “Excess HSA Score” value (THP1 cells; [11]) was 291, the Comments (THP1 cells; [12]) was “Antagonistic over” and the “Excess HSA Score” value (THP1 cells; [12]) was 308.6. The Comments (THP1 cells; [13]) was “Synergistic; Optimal”, the “Excess HSA Score” value (THP1 cells; [13]) was −108.3 and the Comments (THP1 cells; [14]) was “Synergistic; Optimal”. The “Excess HSA Score” value (THP1 cells; [14]) was −1677, the “Excess HSA Score” value (MOLM14(D835Y) cells; MOLM14(D835Y) cells, combination with (+)-BAY-1251152) was −245.2 and the “Excess HSA Score” value (MOLM14(D835Y) cells; MOLM14(D835Y) cells, combination with AMG-232) was 468.3. For the same compound, the “Excess HSA Score” value (MOLM14(D835Y) cells; MOLM14(D835Y) cells, combination with AZD-5363) was −1011, the “Excess HSA Score” value (MOLM14(D835Y) cells; [15]) was 143 and the “Excess HSA Score” value (MOLM14(D835Y) cells; MOLM14(D835Y) cells, combination with Ivosidenib) was 282.2936. For the same compound, the “Excess HSA Score” value (MOLM14(D835Y) cells; MOLM14(D835Y) cells, combination with Lenalidomide) was 491.2, the “Excess HSA Score” value (MOLM14(D835Y) cells; MOLM14(D835Y) cells, combination with Palbociclib) was −732.6 and the “Excess HSA Score” value (MOLM14(D835Y) cells; MOLM14(D835Y) cells, combination with Prednisolone) was 169.8. For the same compound, the “Excess HSA Score” value (MOLM14(D835Y) cells; MOLM14(D835Y) cells, combination with SNDX-5613) was −279.3, the “Excess HSA Score” value (MOLM14(D835Y) cells; MOLM14(D835Y) cells, combination with TNO-155) was −1249 and the “Excess HSA Score” value (MOLM14(D835Y) cells; MOLM14(D835Y) cells, combination with Trametinib) was −336.8. For the same compound, the “Excess HSA Score” value (MOLM14(D835Y) cells; MOLM14(D835Y) cells, combination with Ulixertinib) was −260.4, the “Excess HSA Score” value (MOLM14(D835Y) cells; [16]) was −1890 and the Comments (MOLM14(D835Y) cells; [15]) was “Antagonistic”. For the same compound, the Comments (MOLM14(D835Y) cells; [16]) was “Synergistic”, the “Excess HSA Score” value (MOLM14(D835Y) cells; MOLM14(D835Y), title compound starting conc. 200 nM + (+)-BAY-1251152 starting conc. 1000 nM) was −369.2 and the “Excess HSA Score” value (MOLM14(D835Y) cells; MOLM14(D835Y), title compound starting conc. 200 nM + Azacitidine (5-Azacytidine) starting conc. 20000 nM) was −594. For the same compound, the “Excess HSA Score” value (MOLM14(D835Y) cells; MOLM14(D835Y), title compound starting conc. 200 nM + Palbociclib starting conc. 10000 nM) was −490.9, the “Excess HSA Score” value (MOLM14(D835Y) cells; MOLM14(D835Y), title compound starting conc. 200 nM + Prednisolone starting conc. 10000 nM) was 12.1697 and the “Excess HSA Score” value (MOLM14(D835Y) cells; MOLM14(D835Y), title compound starting conc. 200 nM + TNO-155 starting conc. 10000 nM) was −944.7. For the same compound, the “Excess HSA Score” value (MOLM14(D835Y) cells; MOLM14(D835Y), title compound starting conc. 200 nM + Venetoclax (ABT-199) starting conc. 2000 nM) was −764.8, the “Excess HSA Score” value (MOLM14(D835Y) cells; MOLM14(D835Y), title compound starting conc. 200 nM + Venetoclax (ABT-199) starting conc. 20000 nM) was −71.65 and the “Excess HSA Score” value (MOLM14(D835Y) cells; MOLM14(D835Y), title compound starting conc. 20000 nM + (+)-BAY-1251152 starting conc. 1000 nM) was −47.77. For the same compound, the “Excess HSA Score” value (MOLM14(D835Y) cells; MOLM14(D835Y), title compound starting conc. 20000 nM + Azacitidine (5-Azacytidine) starting conc. 20000 nM) was −49.15, the “Excess HSA Score” value (MOLM14(D835Y) cells; MOLM14(D835Y), title compound starting conc. 20000 nM + Palbociclib starting conc. 10000 nM) was 182.1 and the “Excess HSA Score” value (MOLM14(D835Y) cells; MOLM14(D835Y), title compound starting conc. 20000 nM + Prednisolone starting conc. 10000 nM) was 153.7. For the same compound, the “Excess HSA Score” value (MOLM14(D835Y) cells; MOLM14(D835Y), title compound starting conc. 20000 nM + TNO-155 starting conc. 10000 nM) was −94.76, the “Excess HSA Score” value (MOLM14(D835Y) cells; MOLM14(D835Y), title compound starting conc. 20000 nM + Venetoclax (ABT-199) starting conc. 2000 nM) was −501.6 and the “Excess HSA Score” value (MOLM14(D835Y) cells; MOLM14(D835Y), title compound starting conc. 20000 nM + Venetoclax (ABT-199) starting conc. 20000 nM) was −122.6. It also gave a Kd (IRAK4) of 0.22 nM.
